This is an account of results in the supplement of paper PMC10627819.

What all share (assay): Bliss interaction score (quartile over a dose matrix) (fitness difference); higher = more antagonism (negative = synergy)
One experiment deals with S. aureus DSM 20231. In short, it runs like this: (§1)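 At entry into stationary phase, OD595 was recorded and divided by the robust mean of the no-drug wells on that plate, with any value above 1 set to 1. This gives the fitness measure used throughout. Single-drug fitness was inferred from combination data, and the Bliss score, observed minus product-expected fitness, is shown as quartiles across technical, biological and donor/recipient replicates.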

For the next experiment, the system named is B. subtilis 168. The gist of the method: as §1
A further experiment deals with S. pneumoniae D39V. In short, it runs like this: as §1
The test system of another experiment is S. aureus Newman. The gist of the method:
as §1

Each structure is given as a SMILES string.
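Further: first quartile when negative (synergy) and third quartile when positive (antagonism).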

Turning to `CC(=O)OC[C@H]1O[C@@H]([S-])[C@H](OC(C)=O)[C@@H](OC(C)=O)[C@@H]1OC(C)=O.CCP(CC)CC.[Au+]` [Auranofin] + CN[C@H](CC(C)C)C(=O)N[C@H]1C(=O)N[C@@H](CC(N)=O)C(=O)N[C@H]2C(=O)N[C@H]3C(=O)N[C@H](C(=O)N[C@H](C(=O)O)c4cc(O)cc(O)c4-c4cc3ccc4O)[C@H](O)c3ccc(c(Cl)c3)Oc3cc2cc(c3O[C@@H]2O[C@H](CO)[C@@H](O)[C@H](O)[C@H]2O[C@H]2C[C@](C)(N)[C@H](O)[C@H](C)O2)Oc2ccc(cc2Cl)[C@H]1O [Vancomycin], the Bliss interaction score with S. aureus DSM 20231 is -0.0311; with B. subtilis 168 it was 0.0381; in the experiment with S. pneumoniae D39V, 0.0929; in the experiment on S. aureus Newman, 0.0325.
Consider `CC(=O)OC[C@H]1O[C@@H]([S-])[C@H](OC(C)=O)[C@@H](OC(C)=O)[C@@H]1OC(C)=O.CCP(CC)CC.[Au+]` [Auranofin] + CC1(C)S[C@@H]2[C@H](NC(=O)Cc3ccccc3)C(=O)N2[C@H]1C(=O)O [PenicillinG], for which the Bliss interaction score in the experiment with S. aureus DSM 20231 is 0.0414; with B. subtilis 168, -0.0513; in the experiment on S. pneumoniae D39V it was 0.0454; in the experiment with S. aureus Newman, -0.0443.
`N[C@@H]1CONC1=O` [CycloserineD] + CC(=O)O[C@H]1C[C@@]2(C)[C@@H](C[C@@H](O)[C@H]3[C@@]4(C)CC[C@@H](O)[C@@H](C)[C@@H]4CC[C@@]32C)/C1=C(\CCC=C(C)C)C(=O)O [Fusidic acid]: the Bliss interaction score with S. aureus DSM 20231 is 0.0576; in the experiment on B. subtilis 168, 0.0616; with S. pneumoniae D39V, 0.211; in the experiment with S. aureus Newman, -0.0418.
On the same counts, the results for `N[C@@H]1CONC1=O` [CycloserineD] + C[n+]1ccc(-c2cc[n+](C)cc2)cc1 [Paraquat] are 0.0783, -0.036, -0.101 and 0.0488.
On the same counts, the results for `CC(=O)OC[C@H]1O[C@@H]([S-])[C@H](OC(C)=O)[C@@H](OC(C)=O)[C@@H]1OC(C)=O.CCP(CC)CC.[Au+]` [Auranofin] + C/C(=C\C(=O)OCCCCCCCCC(=O)O)C[C@@H]1OC[C@H](C[C@@H]2O[C@H]2[C@@H](C)[C@H](C)O)[C@@H](O)[C@H]1O [Pseudomonic acid] are 0.0133, 0.0268, 0.081 and 0.0254.
For `O=C(O[C@@H]1Cc2c(O)cc(O)cc2O[C@@H]1c1cc(O)c(O)c(O)c1)c1cc(O)c(O)c(O)c1` [EGCG] + CC(=O)O[C@H]1C[C@@]2(C)[C@@H](C[C@@H](O)[C@H]3[C@@]4(C)CC[C@@H](O)[C@@H](C)[C@@H]4CC[C@@]32C)/C1=C(\CCC=C(C)C)C(=O)O [Fusidic acid], the Bliss interaction score is -0.019 in the experiment on S. aureus DSM 20231, 0.0767 in the experiment on B. subtilis 168, -0.143 in the experiment on S. pneumoniae D39V and -0.0283 in the experiment with S. aureus Newman.
`C[C@@H](O)[C@H]1C(=O)N2C(C(=O)O)=C(SCCNC=N)C[C@H]12` [Imipenem] + CCCCCCCCCC(=O)N[C@@H]1[C@H]([C@@H]([C@H](O[C@H]1OC2=C3C=C4C=C2OC5=C(C=C(C=C5)[C@H]([C@H]6C(=O)N[C@@H](C7=C(C(=CC(=C7)O)OC8[C@H]([C@H]([C@@H]([C@H](O8)CO)O)O)O)C9=C(C=CC(=C9)[C@H](C(=O)N6)NC(=O)[C@@H]4NC(=O)[C@@H]1C2=CC(=CC(=C2)OC2=C(C=CC(=C2)[C@H](C(=O)N[C@H](CC2=CC(=C(O3)C=C2)Cl)C(=O)N1)N)O)O)O)C(=O)O)O[C@H]1[C@@H]([C@H]([C@@H]([C@H](O1)CO)O)O)NC(=O)C)Cl)CO)O)O [Teicoplanin]: the Bliss interaction score was 0.0578 in the experiment on S. aureus DSM 20231 (main component drawn), -0.0771 with B. subtilis 168 (main component drawn), -0.102 in the experiment on S. pneumoniae D39V (main component drawn) and 0.0599 with S. aureus Newman (main component drawn).
As to `N[C@@H]1CONC1=O` [CycloserineD] + C[C@H]1COc2c(N3CCN(C)CC3)c(F)cc3c(=O)c(C(=O)O)cn1c23 [Levofloxacin], the Bliss interaction score in the experiment with S. aureus DSM 20231 was -0.12; in the experiment with B. subtilis 168, 0.0199; with S. pneumoniae D39V, 0.0882; in the experiment on S. aureus Newman it was -0.131.
For `CC(=O)O[C@H]1C[C@@]2(C)[C@@H](C[C@@H](O)[C@H]3[C@@]4(C)CC[C@@H](O)[C@@H](C)[C@@H]4CC[C@@]32C)/C1=C(\CCC=C(C)C)C(=O)O` [Fusidic acid] + CN[C@H](CC(C)C)C(=O)N[C@H]1C(=O)N[C@@H](CC(N)=O)C(=O)N[C@H]2C(=O)N[C@H]3C(=O)N[C@H](C(=O)N[C@H](C(=O)O)c4cc(O)cc(O)c4-c4cc3ccc4O)[C@H](O[C@H]3C[C@](C)(N)[C@@H](O)[C@H](C)O3)c3ccc(c(Cl)c3)Oc3cc2cc(c3O[C@@H]2O[C@H](CO)[C@@H](O)[C@H](O)[C@H]2O[C@H]2C[C@](C)(NCc3ccc(-c4ccc(Cl)cc4)cc3)[C@@H](O)[C@H](C)O2)Oc2ccc(cc2Cl)[C@H]1O [Oritavancin] the same measures were 0.0159, 0.0477, 0.0765 and 0.0249.
On the same counts, the results for `N[C@@H]1CONC1=O` [CycloserineD] + O=C(O[C@@H]1Cc2c(O)cc(O)cc2O[C@@H]1c1cc(O)c(O)c(O)c1)c1cc(O)c(O)c(O)c1 [EGCG] are -0.107, -0.114, -0.0875 and 0.0286.
On the same counts, the results for `O=C(N[C@H](CO)[C@H](O)c1ccc([N+](=O)[O-])cc1)C(Cl)Cl` [Chloramphenicol] + Clc1ccc(COC(Cn2ccnc2)c2ccc(Cl)cc2Cl)c(Cl)c1 [Miconazole] are 0.0813, 0.0615, 0.0799 and 0.0868.
Turning to `CC(=O)OC[C@H]1O[C@@H]([S-])[C@H](OC(C)=O)[C@@H](OC(C)=O)[C@@H]1OC(C)=O.CCP(CC)CC.[Au+]` [Auranofin] + CCC[C@@H]1C[C@@H](C(=O)N[C@@H]([C@H]2O[C@H](SC)[C@H](O)[C@@H](O)[C@H]2O)[C@@H](C)O)N(C)C1 [Lincomycin], the Bliss interaction score was 0.0235 in the experiment on S. aureus DSM 20231, 0.066 in the experiment with B. subtilis 168, -0.0496 with S. pneumoniae D39V and 0.0853 with S. aureus Newman.
On the same counts, the results for `C[C@@H](O)[C@H]1C(=O)N2C(C(=O)O)=C(SCCNC=N)C[C@H]12` [Imipenem] + CO[C@@]12[C@H](COC(N)=O)C3=C(C(=O)C(C)=C(N)C3=O)N1C[C@@H]1N[C@@H]12 [MitomycinC] are -0.03, -0.0977, -0.0563 and 0.0577.
